According to patent US20160052918A1, “SMALL COMPOUNDS TARGETING TACC3” (JAPANESE FOUNDATION FOR CANCER RESEARCH, priority 2012, published 2016):
In brackets after ≈: the same amount, converted by molar mass.

How the values were obtained:
mouse lymphoma cell line = test: Cell death of lymphoma (survival rate, WST-1); format: cell-based; settings: 72 h, IC50=50% survival rate, three days
Protocol: The synthesized compounds were analyzed for their activity against cell death induction using a mouse lymphoma cell line (see Non Patent Literature 12), which was a cell line derived from thymic lymphoma developed in p53KO mouse.
The number of the lymphoma cells was adjusted to 1.2×10^5 cells/ml. The cells were inoculated at a concentration of 50 μl/well to a 96-well culture dish. A medium containing each RT compound as the novel compound of the present invention at twice the concentration of 50 μl was further added thereto (final concentration: 0.021 to 13.3 μg/ml). Three days after cultivation, the survival rate was calculated using WST-1 reagent (manufactured by F. Hoffmann-La Roche, Ltd.).

[1] = test system: SKOV-3 cells expressing EGFP-α-tubulin; test: Mitotic arrest of synchronized EGFP-α-tubulin-expressing SKOV-3 cells, time-lapse single-cell analysis; format: cell-based; settings: for EC50: Homo sapiens, SK-OV-3, 72 h, mitotic arrest, EC50=50% arrest rate, double thymidine block, time-lapse 3 days, at least 50 cells, read-out: SKOV3 EC50; for inhibitory effects on cell growth: summary of Table 2 (SKOV-3 mitotic arrest and lymphoma cell death); for Remarks: start of mitosis: At 66.7 μg/ml; for Remarks: cytotoxic: Table 2 remark
Protocol: The EGFP-α-tubulin-expressing cells used in the assay will be described. In order to observe mitosis under a fluorescence microscope, cells expressing EGFP-α-tubulin (fusion protein of a fluorescent protein, EGFP, and α-tubulin) were prepared. A system observable under a fluorescence microscope without cell fixation was prepared.
Ovary cancer cells SKOV-3 were cultured in an RPMI1640 medium supplemented with 5% fetal bovine serum. Stable cells expressing EGFP-α-tubulin were transduced by lentiviral transduction using pLenti4/V5-DEST vectors (Registered Trade Mark) (manufactured by Invitrogen Corp.) and selected by the FACS sorting of infected cells using Zeocin (Registered Trade Mark) and subsequent FACSAria (Registered Trade Mark) (Becton, Dickinson and Company).
The compounds NPD2448, NPD2568, NPD3574, NPD4089, and C7—O-propylated NPD3574 were each added at varying concentrations to the culture medium of SKOV-3 cells expressing EGFP-α-tubulin and analyzed for their effect on cell division.
The SKOV-3 cells expressing EGFP-α-tubulin were synchronized by thymidine block to analyze the effect on cell division of each compound. As shown in the upper part of FIG. 2, each compound was added to the culture medium after the 1st thymidine block. After synchronization by the second thymidine block, images were taken every 2 minutes for 3 days using Leica AF6000 and ×20/0.5 Plan Fluotar objective lens in a phenol red-free RPMI1640 medium supplemented with 5% fetal bovine serum. These time-lapse images were analyzed using ImageJ 1.42a software, and the time of mitotic arrest was determined by visual judgment. The duration of mitosis was manually determined from the image sequences of at least 50 cells.
The mitotic arrest (EC50=50% arrest rate) was tested by the microscopic analysis of individual single cells.
EGFP-α-tubulin-expressing SKOV-3 cells synchronized by double thymidine block in the same way as in Example 2 were treated with each synthesized compound and subjected to time-lapse photography for 3 days. At least 50 cells were observed. The time of arrest of each cell was calculated, and EC50 was determined therefrom.
EGFP-α-tubulin-expressing SKOV-3 cells supplemented with each of SPL-A and SPL-B at varying concentrations were synchronized by double thymidine block in the same way as in Example 2. Analysis based on single cells was conducted by time-lapse photography. The duration of mitosis was measured from the image sequences of at least 50 cells.

[2] = Solubility remarks of Table 2; format: physicochemical; settings: Table 2 remark
cultured cells = test: Visual screening (microscopic observation) for abnormal cell division in cultured cells; format: cell-based; settings: added into culture medium
Description: As a result of screening 6800 compounds, 70 compounds were bound with the TACC3-DsRed fusion protein. These 70 compounds recognized to bind to the TACC3-DsRed fusion protein were each added into a culture medium of cultured cells. Compounds inducing abnormal cell division were selected by microscopic observation. As a result, 4 compounds were screened for as compounds inhibiting cell division (FIG. 1, lower diagram, visual screening).

[3] = target: T1, TACC3-DsRed fusion protein (Homo sapiens, UniProt Q9Y6A5); test: Chemical array screening for compounds binding to TACC3-DsRed fusion protein; settings: compound immobilized on chemical array, cell lysate
T1 construct: expressed in transfected cells; host or cells: HEK293T
Protocol: The present inventors screened for compounds targeting at TACC3 using a chemical array (FIG. 1).
According to the protocol of Miyazaki et al. (Non Patent Literature 13), a cell lysate containing a TACC3-DsRed fusion protein was contacted with the chemical array to screen for a compound binding to the TACC3-DsRed fusion protein (FIG. 1, upper diagram).
The cell lysate containing a TACC3-DsRed fusion protein is prepared as follows.
Human TACC3 cDNA was cloned into pDsRed-Express-N1 (Registered Trade Mark) (manufactured by Clontech Laboratories, Inc.), which was then transferred to HEK293T cells. Forty eight hours after transfection, the cells were collected. The obtained cells were sonicated in PBS and centrifuged for removal of insoluble substances to obtain a cell lysate. The cell lysate was confirmed the presence of the TACC3-DsRed fusion protein using anti-TACC3 and anti-DsRed antibodies.
The cell lysate containing a TACC3-DsRed fusion protein was contacted with the chemical array. After washing, the TACC3-DsRed fusion protein bound with a compound immobilized on the chemical array was detected. The detection of the TACC3-DsRed fusion protein with a compound was carried out by the excitation of a chemical array slide with a wavelength of 532 nm and the detection of fluorescence at 575 nm

[4] = test system: p53-knockout cells derived from human colon cancer cells HCT-116; test: Cell growth by WST assay, combined use of SPL-B and paclitaxel; format: cell-based; settings: HCT-116, 72 h, three days
Protocol: p53-knockout cells derived from human colon cancer cells HCT-116 were cultured after combined administration of paclitaxel and SPL-B. Three days after cultivation, the survival rate of the cells was measured by WST assay.

EC50 [1] [µg/mL]	Compound	IC50 (mouse lymphoma cell line) [µg/mL]	inhibitory effects on cell growth [1]	also measured
0.17 (≈ 0.362 µM)	COCCN(CCOC)Cc1c(O)ccc2c(-c3cc4cc(F)ccc4oc3=O)cc(=O)oc12 [RT-029]	0.21 (≈ 0.447 µM)	remarkable inhibitory effects on cell growth	–
> 66.7	COCCN(CCOC)Cc1c(OCC(O)CO)ccc2c(-c3cc4ccccc4oc3=O)cc(=O)oc12 (stereo not shown) [RT-024]	–	–	–
> 66.7	C=CCOc1ccc2c(-c3cc4ccccc4oc3=O)cc(=O)oc2c1CN(CCOC)CCOC [RT-021]	–	–	Remarks: solubility [2]: Insoluble
> 66.7	C#CCOc1ccc2c(-c3cc4ccccc4oc3=O)cc(=O)oc2c1CN(CCOC)CCOC [RT-017]	–	–	Remarks: solubility [2]: Insoluble
> 66.7	COCC[N+]([O-])(CCOC)Cc1c(OCC=C(C)C)ccc2c(-c3cc4ccccc4oc3=O)cc(=O)oc12 [RT-025]	–	–	–
> 66.7	COCCN(CCOC)Cc1c(OCC(O)C(C)(C)O)ccc2c(-c3cc4ccccc4oc3=O)cc(=O)oc12 (stereo not shown) [RT-026]	–	–	–
> 66.7	O=c1cc(-c2cc3ccccc3oc2=O)c2ccc(O)cc2o1 [RT-030]	–	–	–
0.16 (≈ 0.378 µM)	O=c1cc(-c2cc3cc(F)ccc3oc2=O)c2ccc(O)c(CN3CCOCC3)c2o1 [RT-019]	0.12 (≈ 0.283 µM)	remarkable inhibitory effects on cell growth	–
> 66.7	COCCN(CCOC)Cc1c(OCC=C(C)C)ccc2c(-c3cc4ccccc4oc3=O)cc(=O)oc12 [RT-022]	–	–	Remarks: start of mitosis [1]: μg/ml, mitosis did not; Remarks: solubility [2]: Insoluble. At 66.7
> 66.7	C=CCOc1ccc2c(-c3cc4ccccc4oc3=O)cc(=O)oc2c1C[N+]([O-])(CCOC)CCOC [RT-023]	–	–	–
> 66.7	CCCOc1ccc2c(-c3cc4ccccc4oc3=O)cc(=O)oc2c1CN(CCOC)CCOC [RT-013]	–	–	–
1.39 (≈ 3.43 µM)	O=c1cc(-c2cc3ccccc3oc2=O)c2ccc(O)c(CN3CCOCC3)c2o1 [RT-012]	2.05 (≈ 5.06 µM)	remarkable inhibitory effects on cell growth	–
> 66.7	O=c1cc(-c2cc3cc(Cl)ccc3oc2=O)c2ccc(O)cc2o1 [RT-018]	–	–	Remarks: solubility [2]: Poorly soluble in DMSO
6.56 (≈ 12.4 µM)	COCCN(CCOC)Cc1c(O)ccc2c(-c3cc4cc(Br)ccc4oc3=O)cc(=O)oc12 [RT-028]	3.28 (≈ 6.18 µM)	remarkable inhibitory effects on cell growth	–
8.76 (≈ 18 µM)	O=c1cc(-c2cc3ccccc3oc2=O)c2ccc(O)c(CN3CCC(N4CCCCC4)CC3)c2o1 [RT-014]	8.25 (≈ 17 µM)	remarkable inhibitory effects on cell growth	–

Second part, the compound before the results:

Compound	EC50 [1] [µg/mL]	IC50 (mouse lymphoma cell line) [µg/mL]	inhibitory effects on cell growth [1]	also measured
CC1CCN(Cc2c(O)ccc3c(-c4cc5ccccc5oc4=O)cc(=O)oc23)CC1 [RT-010]	0.94 (≈ 2.25 µM)	1.64 (≈ 3.93 µM)	remarkable inhibitory effects on cell growth	–
O=c1cc(-c2cc3ccccc3oc2=O)c2ccc(O)c(CN3CCCCC3)c2o1 [RT-009]	2.68 (≈ 6.64 µM)	10.1 (≈ 25.1 µM)	remarkable inhibitory effects on cell growth	–
O=c1cc(-c2cc3cc(Cl)ccc3oc2=O)c2ccc(O)c(CN3CCCCCC3)c2o1 [NPD2568]	–	–	–	abnormal cell division (cultured cells): induced abnormal cell division; binding to the TACC3-DsRed fusion protein [3]: bound to the TACC3-DsRed fusion protein
CN(CCO)Cc1c(O)ccc2c(-c3cc4ccccc4oc3=O)cc(=O)oc12 [RT-004]	8.49 (≈ 21.6 µM)	> 13.3	remarkable inhibitory effects on cell growth	–
CCN(CCN(C)C)Cc1c(O)ccc2c(-c3cc4ccccc4oc3=O)cc(=O)oc12 [RT-006]	1.15 (≈ 2.65 µM)	3.3 (≈ 7.6 µM)	remarkable inhibitory effects on cell growth	–
CC(=O)OCc1c(OC(C)=O)ccc2c(-c3cc4ccccc4oc3=O)cc(=O)oc12 [RT-002]	> 13.3	8.3 (≈ 19.7 µM)	remarkable inhibitory effects on cell growth	Remarks: start of mitosis [1]: μg/ml, mitosis did not; Remarks: cytotoxic [1]: Cytotoxic. At 66.7
CCCCN(C)Cc1c(O)ccc2c(-c3cc4cc(Br)ccc4oc3=O)cc(=O)oc12 [NPD4089]	–	–	–	abnormal cell division (cultured cells): induced abnormal cell division; binding to the TACC3-DsRed fusion protein [3]: bound to the TACC3-DsRed fusion protein
CCCN(CCC)Cc1c(O)ccc2c(-c3cc4ccccc4oc3=O)cc(=O)oc12 [NPD2448]	–	–	–	abnormal cell division (cultured cells): induced abnormal cell division; binding to the TACC3-DsRed fusion protein [3]: bound to the TACC3-DsRed fusion protein
COCCN(CCOC)Cc1c(O)ccc2c(-c3cc4ccccc4oc3=O)cc(=O)oc12 [NPD3574]	0.85 (≈ 1.88 µM)	1.26 (≈ 2.79 µM)	remarkable inhibitory effects on cell growth	abnormal cell division (cultured cells): induced abnormal cell division; binding to the TACC3-DsRed fusion protein [3]: bound to the TACC3-DsRed fusion protein
CC(=O)O[C@H]1C(=O)[C@@]2(C)[C@H]([C@H](OC(=O)c3ccccc3)[C@]3(O)C[C@H](OC(=O)[C@H](O)[C@@H](NC(=O)c4ccccc4)c4ccccc4)C(C)=C1C3(C)C)[C@]1(OC(C)=O)CO[C@@H]1C[C@@H]2O [paclitaxel]	–	–	–	IC50 ([4]; adding SPL-B at 150 μM): 7.7 nM; IC50 ([4]; adding SPL-B at 300 μM): 7.54 nM; IC50 ([4]; in the absence of SPL-B): 8.34 nM
CN(C)CCNCc1c(O)ccc2c(-c3cc4ccccc4oc3=O)cc(=O)oc12 [RT-005]	> 13.3	5.37 (≈ 13.2 µM)	remarkable inhibitory effects on cell growth	Remarks: start of mitosis [1]: μg/ml, mitosis did not; Remarks: cytotoxic [1]: Cytotoxic. At 66.7
CCN(CC)Cc1c(O)ccc2c(-c3cc4ccccc4oc3=O)cc(=O)oc12 [RT-003]	0.85 (≈ 2.17 µM)	5.08 (≈ 13 µM)	remarkable inhibitory effects on cell growth	–
O=c1cc(-c2cc3ccccc3oc2=O)c2ccc(O)c(CN3CCCC3)c2o1 [RT-008]	2.67 (≈ 6.86 µM)	9.77 (≈ 25.1 µM)	remarkable inhibitory effects on cell growth	–
COCCN(CCOC)Cc1c(O)ccc2c(C)cc(=O)oc12 [RT-001]	> 66.7	–	–	–
